In patent publication US12692232B2, “Indole carboxamide compound, preparation therefor and use thereof” (NANJING RUISHUNING MEDICAL TECHNOLOGY CO., LTD., priority 2021, dated 2026):

Columns and labels:
[1] = tested on: mouse model of focal segmental glomerulosclerosis; test: Mouse model of focal segmental glomerulosclerosis (adriamycin); format: in vivo; conditions: for serum urea nitrogen level: model 16.08±0.23; for urine protein level: model 547.0±106.3; for glomerular lesions, renal tissue pathology (H&E, PAS, Sirius red stain): FIG. 1; for glomerular lesions, renal tissue pathology (H&E, PAS, Sirius red stain) / body weight compared with the FSGS group: control compound 25 mg/kg, irbesartan 50 mg/kg; for body weight compared with the FSGS group: gavage daily 6 weeks, compound 1-1 10, 25, 50 mg/kg
Procedure: The method was as follows:
Each mouse in the model group, the treatment groups and the positive control group was injected once into the tail vein with adriamycin at a dose of 8 mg/kg, and each mouse in the control group was injected once into the tail vein with saline at the same dose. The mice in the control group and model group were administered equal amount of saline by gavage for 6 weeks, and the mice in other group were administered corresponding compound in doses by gavage at a fixed time each day for 6 weeks after modelling with adriamycin. The body weights were recorded weekly and urine samples were collected.
Collection of urine samples: animals were placed in separate metabolic cages by group on days 0, 7, 14, 21, 28, 35, and 42 after modelling, with free access to water and no access to food, and urine samples were collected from each group of mice.
Determination of urine protein level using Coomassie brilliant blue (CBB) method: urine protein level was determined by urine protein quantitative test kit (Nanjing Jiancheng Bioengineering Institute). CBB working solution was prepared according to the kit instructions. 0.05 mL of each urine sample was mixed with 3 mL of CBB working solution, the mixture was allowed to stand for 5 min, and the absorbance value of each sample was determined at 595 nm. The urine protein levels samples of each group was calculated according to the protein standardization formula: urine protein level (mg/L)=(measured OD−blank OD)/(standard OD−blank OD)×563 mg/L.
Collection of serum samples: orbital blood from each mouse was collected in an EP tube, placed at 37° C. for 20 minutes, and centrifuged to obtain an upper layer of serum.
Collection of plasma samples: orbital blood from each mouse was collected in an anticoagulation tube, mixed well and stored at 4° C. for later use.
Determination of urea nitrogen level in plasma by diacetyl monoxime method: urea nitrogen level was determined by using blood urea nitrogen (BUN) test kit (Nanjing Jiancheng Bioengineering Institute). According to the kit instructions, 0.05 mL of anticoagulated plasma sample was mixed with 1 mL of oxime solution and 1 mL of acid working solution, and the mixtures were placed in a boiling water bath for 15 minutes. A UV-visible spectrophotometer was used to determine the absorbance values of each tube at a wavelength of 520 nm. Urea nitrogen levels in plasma samples of each group were calculated according to the formula: Urea nitrogen level (mmol/L)=(measured OD value−blank OD value)/(standard OD value−blank OD value)×10 mmol/L.
Collection of kidney tissue samples: kidneys were taken from mice after anesthesia, cut horizontally, and the upper part of the kidneys was embedded in OCT embedding box, sliced with frozen slicer and stored at −20° C.
H&E staining was used to assess pathological glomerular changes, and the procedure was as follows: frozen sections were fixed with 95% ethanol for 2 minutes, hydrated with distilled water, stained with hematoxylin for 3 minutes, washed with distilled water for 3 minutes, differentiated using 1% hydrochloric acid in ethanol for 10 seconds, washed with distilled water for 30 seconds, returned to blue in running water for 5 minutes, washed in distilled water for 30 seconds, stained with eosin for 30 seconds, washed with 75% and 85% ethanol for 20 seconds each, dehydrated rapidly with 95% ethanol for 1 minute, dehydrated with anhydrous ethanol, cleared to transparency in xylene (1 minute×3), and finally sealed with neutral balsam and photographed with a biomicroscope.

[2] = tested on: rat model of pulmonary hypertension induced by monocrotaline; test: Rat model of pulmonary hypertension induced by monocrotaline; format: in vivo; conditions: for reduction of TNF-α levels compared with the MCT model: 25 mg/kg; for RV/(LV + S): MCT model 0.45 ± 0.03; for TNF-α in lung tissue: MCT model 0.94 ± 0.07; for mPAP: MCT model 33.7 ± 4.3; for small pulmonary artery lesions compared with the model group (histopathology, H&E): treatment groups
Procedure: The preventive effect of the compounds of the present invention (as exemplified by compound 1-1 obtained in Example 1) on pulmonary hypertension was determined using a rat model of pulmonary hypertension induced by monocrotaline. The method was as follows:
Grouping of animals: 70 male SD rats with weigh of 200±20 g were randomly divided into 7 groups, i.e., a normal control group, a monocrotaline (MCT) model group, a treatment group of low-dose compound 1-1 (10 mg/kg) (MCT), a treatment group of medium-dose compound 1-1 (25 mg/kg) (MCT), a treatment group of high-dose compound 1-1 (50 mg/kg) (MCT), a treatment group of medium-dose indole analogue 3-[(1-methyl-1H-indole-2-carbonyl)amino]propionic acid (25 mg/kg) disclosed in CN2019107285315 (MCT), and a sildenafil group (150 mg/kg) (MCT), with 10 rats in each group.
Experimental procedure: MCT was prepared as a 2% solution with a mixture of ethanol and saline (2:8) and the solution was injected intraperitoneally once at a dose of 60 mg/kg body weight in all groups except the normal control group. Each rat in the normal control group was injected intraperitoneally once with a solution prepared from ethanol and saline in a volume ratio of 2:8. Compound 1-1 obtained in Example 1, the indole analogue 3-[(1-methyl-1H-indole-2-carbonyl)amino]propionic acid disclosed in CN2019107285315, or the positive drug sildenafil was administered by gavage to the mice in the treatment groups on the day of modelling, and saline was administered by gavage to the mice in the normal control group and the MCT model group. The drugs were administered by gavage once a day for 28 days until 12 hours before test.
Determination of hemodynamic indexes: a polyethylene plastic microcatheter filled with heparin solution (0.9% sodium chloride solution+10 U/mL heparin) was inserted into the right external jugular vein of a rat, and the other end of the microcatheter was connected to a miniature pressure transducer to monitor the pressure changes. […] After 30 minutes of stabilization, the POWERLAB multi-channel intelligent physiological signal acquisition and recording system was applied to acquire, record and analyze the indexes.
Determination of the index of right ventricular (RV) hypertrophy: at the end of the experiment, the heart was removed by dissection of the thorax and the atrial tissue was cut off. The right ventricle (RV), left ventricle (LV), and interventricular septum (S) were isolated along the edge of the interventricular septum, and the RV, LV, and S were weighed after absorbing water with filter paper and the ratio RV/(LV+S) was used to reflect the degree of RV hypertrophy.
Pathological examination of pulmonary vessels: tissue blocks were taken from the same site in the lower lobe of the right lung and fixed in 10% neutral formaldehyde (pH=7.4) for 2 days. Routine paraffin embedding, serial sections, H&E staining and light microscopy were performed to observe morphological changes in small pulmonary arteries.
Effect on inflammatory factors in lung tissue: Lung tissues were collected from each group of rats, homogenates of lung tissue were prepared and centrifuged and supernatants were collected. The protein level in the supernatant was determined by Coomassie brilliant blue method, and tumor necrosis factor-α (TNF-α) in rats was determined by an ELISA kit (Beijing 4A Biotech Co., Ltd.). […]

[3] = MCT + 25 mg/kg gavage once a day 28 days

| SMILES | serum urea nitrogen level reduced compared with the model group ([1]; 25 mg/kg gavage, 6 weeks) | urine protein level reduced compared with the model group ([1]; 25 mg/kg gavage, 6 weeks) | serum urea nitrogen level ([1]; 25 mg/kg gavage, 6 weeks) | urine protein level ([1]; 25 mg/kg gavage, 6 weeks) | glomerular lesions, renal tissue pathology (H&E, PAS, Sirius red stain) [1] | body weight compared with the FSGS group [1] | reduction of TNF-α levels compared with the MCT model [2] | RV/(LV + S) ([2]; MCT + 25 mg/kg gavage 28 days) | TNF-α in lung tissue ([2]; MCT + 25 mg/kg gavage 28 days) | mPAP [2, 3] | small pulmonary artery lesions compared with the model group (histopathology, H&E) [2] | also measured |
| --- | --- | --- | --- | --- | --- | --- | --- | --- | --- | --- | --- | --- |
| Cn1c(C(=O)NCCC(=O)O)cc2ccccc21 [3-[(1-methyl-1H-indole-2-carbonyl)amino]propionic acid, reference compound] | 20.3% | 22.6% | 12.82 ± 0.46 mmol/L | 423 ± 64.7 mg/L | glomerular mesangial matrix hyperplasia is reduced compared with the model group, but increased compared with the treatment groups of compound 1-1 | increased body weights | 37.2% | 0.38 ± 0.04 | 0.59 ± 0.07 g/g protein | 28.9 ± 3.4 mmHg | significantly reduced |  |
| CC(=O)OCCCNC(=O)c1c(C=O)c2ccccc2n1C [compound 1-1, propyl 3-[(3-formyl-1-methyl-1H-indole-2-carbonyl)amino]acetate] | 27.2% | 28.6% | 11.7 ± 0.33 mmol/L | 390 ± 74.6 mg/L | significantly ameliorates glomerular lesions caused by FSGS | increased body weights | 58.5% | 0.31 ± 0.04 | 0.39 ± 0.05 g/g protein | 25.8 ± 2.5 mmHg | significantly reduced | serum urea nitrogen level vs model group ([1]; 10 mg/kg gavage, 6 weeks): significantly reduced; urine protein level vs model group ([1]; 10 mg/kg gavage, 6 weeks): significantly reduced; serum urea nitrogen level reduced compared with the model group ([1]; 50 mg/kg gavage, 6 weeks): 29.8%; urine protein level reduced compared with the model group ([1]; 50 mg/kg gavage, 6 weeks): 42.7%; serum urea nitrogen level ([1]; 50 mg/kg gavage, 6 weeks): 11.29 ± 0.40 mmol/L; urine protein level ([1]; 50 mg/kg gavage, 6 weeks): 313 ± 57.6 mg/L; RV/(LV + S) ([2]; MCT + 10 mg/kg gavage 28 days): 0.37 ± 0.04; TNF-α in lung tissue ([2]; MCT + 10 mg/kg gavage 28 days): 0.65 ± 0.08 g/g protein; mPAP ([2]; MCT + 10 mg/kg gavage once a day 28 days): 26.0 ± 2.8 mmHg; RV/(LV + S) ([2]; MCT + 50 mg/kg gavage 28 days): 0.28 ± 0.03; TNF-α in lung tissue ([2]; MCT + 50 mg/kg gavage 28 days): 0.34 ± 0.05 g/g protein; mPAP ([2]; MCT + 50 mg/kg gavage once a day 28 days): 20.3 ± 3.0 mmHg |
